26 compounds from US20230116972A1, “CD38 MODULATORS AND METHODS OF USE THEREOF” (Cytokinetics, Inc., priority 2021, published 2023) can be followed below.

As usually defined, the IC50 is the concentration at which inhibition is half-maximal.

Test [1] concerns the target T1, human CD38 (Homo sapiens, UniProt P28907).
T1 sequence (P28907 1-300): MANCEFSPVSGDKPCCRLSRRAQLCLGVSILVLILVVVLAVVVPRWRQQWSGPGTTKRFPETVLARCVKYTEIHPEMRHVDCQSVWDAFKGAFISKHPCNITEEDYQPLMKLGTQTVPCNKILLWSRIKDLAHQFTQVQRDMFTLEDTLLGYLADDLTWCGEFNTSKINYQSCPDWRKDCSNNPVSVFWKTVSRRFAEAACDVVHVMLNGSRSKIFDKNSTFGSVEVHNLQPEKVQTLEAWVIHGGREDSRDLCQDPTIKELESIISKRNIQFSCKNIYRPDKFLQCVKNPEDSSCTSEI
Briefly: human recombinant CD38 enzyme assay (hydrolysis of NAD+). In kind it is biochemical. The note with it: human recombinant CD38, 0.4 nM enzyme, 62.5 μM NAD+; read-out: hCD38 BioChem IC50. The procedure, abridged: (§1)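 Residual substrate after a one-hour room-temperature incubation of recombinant CD38 with NAD+ and test compound is measured by an ADH/diaphorase coupled resorufin signal (540 nm excitation, 590 nm emission); reduced NAD+ consumption reflects inhibition.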

Test [2] concerns the target T2, mouse CD38 (Mus musculus, UniProt P56528).
T2 sequence (P56528 1-304): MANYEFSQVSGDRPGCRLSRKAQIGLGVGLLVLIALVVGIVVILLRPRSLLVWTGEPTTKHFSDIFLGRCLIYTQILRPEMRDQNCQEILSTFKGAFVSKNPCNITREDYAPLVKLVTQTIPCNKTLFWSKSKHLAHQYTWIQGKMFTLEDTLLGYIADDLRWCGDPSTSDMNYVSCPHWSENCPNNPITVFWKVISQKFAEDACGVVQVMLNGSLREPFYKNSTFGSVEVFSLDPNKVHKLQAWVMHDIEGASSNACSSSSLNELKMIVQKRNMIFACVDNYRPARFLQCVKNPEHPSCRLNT
The test can be described thus: mouse recombinant CD38 enzyme assay (hydrolysis of NAD+). The format is biochemical. The note with it: read-out: mCD38 BioChem IC50. The procedure, abridged:
as §1

For test [3], the target named is T3, endogenous CD38 in HL60 cells (Homo sapiens, UniProt P28907).
T3 construct: endogenous in cells; host or cells: HL60 (leukemic cells, treated with all-trans retinoic acid)
T3 sequence (P28907 1-300): T1 sequence (P28907 1-300)
The test can be described thus: cellular CD38 assay in HL60 cells (cellular NAD levels). To be noted: all-trans retinoic acid, 24 hours, read-out: hCD38 HL60 ATRA NAD Cell Diaphorase IC50. In kind it is cell-based. Put shortly: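 Endogenous CD38 inhibition is inferred from NAD levels in HL60 cells after 24 h compound exposure at 20000 cells per well. A lytic cycling readout (0.2 U/mL diaphorase, 0.8 U/mL alcohol dehydrogenase, resazurin, FMN, ethanol, 0.2% Triton X-100, Tris/EDTA pH 8.4) ran 60 min at ambient temperature. Resorufin fluorescence was read at 540/590 nm.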

On to `Cc1ccc(C(=O)Nc2cccnc2)nc1-n1ccnc1` [Compound 22, 6-(1H-imidazol-1-yl)-5-methyl-N-(pyridin-3-yl)picolinamide], for which the IC50 in test [1] came out at 496 nM; in test [2] it was 70 nM; in test [3] it was 802 nM.
The like results for `O=C(N[C@H]1C[C@H](c2ccc(F)cc2)C1)c1nccc(-n2ccnc2)n1` [Compound 238, N-((1r,3r)-3-(4-fluorophenyl)cyclobutyl)-4-(1H-imidazol-1-yl)pyrimidine-2-carboxamide] were, in that order, 43.2 nM, 40.9 nM and 2380 nM.
On to `CO[C@H]1CC[C@H](NC(=O)c2cc([C@H]3CC[C@@H](OC)CC3)nc(-c3cncn3C)n2)CC1` [Compound 315, N-((1r,4R)-4-methoxycyclohexyl)-6-((1s,4S)-4-methoxycyclohexyl)-2-(1-methyl-1H-imidazol-5-yl)pyrimidine-4-carboxamide], for which the figures for the IC50 in test [1], in test [2] and in test [3] were 13.7 nM, 1.8 nM and 2280 nM, respectively.
Regarding `CO[C@H]1C[C@H](NC(=O)c2cccc(-n3ccnc3)n2)C1` [Compound 23, 6-(1H-imidazol-1-yl)-N-(3-methoxycyclobutyl)picolinamide], the IC50 turned out to be 614 nM in test [1], 110 nM in test [2] and 3890 nM in test [3].
Take `O=C(Nc1ccc(C(F)F)nc1)c1cc(C2CC2)nc(-c2cncs2)n1` [Compound 110, 6-cyclopropyl-N-(6-(difluoromethyl)pyridin-3-yl)-2-(thiazol-5-yl)pyrimidine-4-carboxamide]: the 50% inhibitory concentration (IC50) in test [1] stood at 108 nM; in test [2] it was 20 nM; in test [3] it was 2550 nM.
With `O=C(Nc1cccc(F)c1)c1cccc(-n2ccnc2)n1` [Compound 18, N-(3-fluorophenyl)-6-(1H-imidazol-1-yl)picolinamide], the IC50 in test [1] worked out at 6 nM; in test [2], 6 nM; in test [3] it was 415 nM.
In the case of `O=C(Nc1cccnc1)c1cncc(-n2ccnc2)n1` [Compound 56, 6-(1H-imidazol-1-yl)-N-(pyridin-3-yl)pyrazine-2-carboxamide], the IC50 in test [1] was determined as 5 nM; in test [2], 6 nM; in test [3], 263 nM.
With `CO[C@H]1CC[C@H](NC(=O)c2nc(-c3cncn3C)cnc2N)CC1` [Compound 318, 3-amino-N-((1r,4r)-4-methoxycyclohexyl)-6-(1-methyl-1H-imidazol-5-yl)pyrazine-2-carboxamide], the IC50 in test [1] amounted to 18.5 nM; in test [2] it was 13.4 nM; in test [3], 1920 nM.
As for `COc1ccc([C@H]2C[C@H](NC(=O)c3nccc(-n4ccnc4)n3)C2)cc1` [Compound 217, 4-(1H-imidazol-1-yl)-N-((1r,3r)-3-(4-methoxyphenyl)cyclobutyl)pyrimidine-2-carboxamide], the IC50 in test [1] was 36.4 nM; in test [2] it was 19.7 nM; in test [3] it was 1970 nM.
For the compound `O=C(N[C@H]1CC[C@H](C(F)F)CC1)c1cccc(-n2ccnc2)n1` [Compound 64, N-(4-(difluoromethyl)cyclohexyl)-6-(1H-imidazol-1-yl)picolinamide], the IC50 in test [1] turned out to be 34 nM; in test [2], 7 nM; in test [3], 2420 nM.
On to `O=C(N[C@H]1CC[C@H](C(F)F)CC1)c1nccc(-n2ccnc2)n1` [Compound 73, N-((1r,4r)-4-(difluoromethyl)cyclohexyl)-4-(1H-imidazol-1-yl)pyrimidine-2-carboxamide], for which the concentration for half-maximal inhibition (IC50) in test [1] stood at 60 nM; in test [2], 33 nM; in test [3], 1990 nM.
On to `O=C(Nc1cccnc1)c1nccc(-n2ccnc2)n1` [Compound 36, 4-(1H-imidazol-1-yl)-N-(pyridin-3-yl)pyrimidine-2-carboxamide], for which the IC50 worked out at 5 nM in test [1], 14 nM in test [2] and 187 nM in test [3].
With `Cn1cncc1-c1ccnc(C(=O)N[C@H]2CC[C@H](C(C)(C)O)CC2)n1` [Compound 254, N-((1r,4r)-4-(2-hydroxypropan-2-yl)cyclohexyl)-4-(1-methyl-1H-imidazol-5-yl)pyrimidine-2-carboxamide], the IC50 was 93.5 nM in test [1], 31.2 nM in test [2] and 3670 nM in test [3].
For `O=C(N[C@H]1CC[C@H](CO)CC1)c1nccc(-n2ccnc2)n1` [Compound 261, N-((1r,4r)-4-(hydroxymethyl)cyclohexyl)-4-(1H-imidazol-1-yl)pyrimidine-2-carboxamide], the IC50 in test [1] was determined as 86.3 nM; in test [2], 39.1 nM; in test [3] it was 3100 nM.
Take `CC(=O)N1CC2(CC(NC(=O)c3cccc(-n4ccnc4)n3)C2)C1` [Compound 47, N-(2-acetyl-2-azaspiro[3.3]heptan-6-yl)-6-(1H-imidazol-1-yl)picolinamide]: the IC50 in test [1] amounted to 417 nM; in test [2], 100 nM; in test [3], 9150 nM.
The corresponding values for `O=C(NC1CCOC1)c1cccc(-n2ccnc2)n1` (stereo not drawn) [Compound 63, 6-(1H-imidazol-1-yl)-N-(tetrahydrofuran-3-yl)picolinamide] are 404 nM, 163 nM and 5910 nM.
`O=C(N[C@H]1CC[C@H](O)CC1)c1nccc(-n2ccnc2)n1` [Compound 257, N-((1r,4r)-4-hydroxycyclohexyl)-4-(1H-imidazol-1-yl)pyrimidine-2-carboxamide]: the results for the IC50 in test [1], in test [2] and in test [3] were 124 nM, 43.4 nM and 4520 nM, respectively.
Regarding `CO[C@H]1CC[C@H](NC(=O)c2ccnc(-c3cncn3C)n2)CC1` [Compound 84, N-((1r,4r)-4-methoxycyclohexyl)-2-(1-methyl-1H-imidazol-5-yl)pyrimidine-4-carboxamide], the IC50 in test [1] was 12 nM; in test [2] it was 2 nM; in test [3], 1110 nM.
As to `COCCO[C@H]1CC[C@H](NC(=O)c2nc(C)cc(-c3cncn3C)n2)CC1` [Compound 232, N-((1r,4r)-4-(2-methoxyethoxy)cyclohexyl)-4-methyl-6-(1-methyl-1H-imidazol-5-yl)pyrimidine-2-carboxamide], the IC50 in test [1] came out at 53.7 nM; in test [2] it was 8.1 nM; in test [3], 7290 nM.
Consider `Cc1cc(C(=O)NC2CC3(C2)CC(F)(F)C3)nc(-c2cncn2C)n1` [Compound 124, N-(6,6-difluorospiro[3.3]heptan-2-yl)-6-methyl-2-(1-methyl-1H-imidazol-5-yl)pyrimidine-4-carboxamide], for which the results for the half-inhibitory concentration (IC50) in test [1], in test [2] and in test [3] were 17 nM, 1 nM and 1400 nM, respectively.
Consider `O=C(Nc1cccnc1)c1cc(-n2ccnc2)ccn1` [Compound 1, 4-(1H-imidazol-1-yl)-N-(pyridin-3-yl)picolinamide], for which the IC50 in test [1] was 243 nM; in test [2] it was 358 nM; in test [3], 2000 nM.
With `Cn1cncc1-c1ccnc(C(=O)N[C@H]2C[C@H](c3ccc(F)cc3F)C2)n1` [Compound 243, N-((1r,3r)-3-(2,4-difluorophenyl)cyclobutyl)-4-(1-methyl-1H-imidazol-5-yl)pyrimidine-2-carboxamide], the IC50 was 28.1 nM in test [1], 14.6 nM in test [2] and 3720 nM in test [3].
As to `COc1cc(C(=O)N[C@H]2CC[C@H](OC)CC2)nc(-n2ccnc2)n1` [Compound 125, 2-(1H-imidazol-1-yl)-6-methoxy-N-((1r,4r)-4-methoxycyclohexyl)pyrimidine-4-carboxamide], the IC50 in test [1] amounted to 19 nM; in test [2], 4 nM; in test [3], 2480 nM.
As to `Cn1cncc1-c1nccc(C(=O)NC2CC3(C2)CC(F)(F)C3)n1` [Compound 82, N-(6,6-difluorospiro[3.3]heptan-2-yl)-2-(1-methyl-1H-imidazol-5-yl)pyrimidine-4-carboxamide], the IC50 is 10 nM in test [1], 3 nM in test [2] and 1080 nM in test [3].
For `CC(C)(O)c1ccc(NC(=O)c2ccnc(-n3ccnc3)n2)cn1` [Compound 248, N-(6-(2-hydroxypropan-2-yl)pyridin-3-yl)-2-(1H-imidazol-1-yl)pyrimidine-4-carboxamide], the IC50 in test [1] turned out to be 10.7 nM; in test [2], 13.8 nM; in test [3], 874 nM.
In the case of `CC(C)c1cc(C(=O)Nc2ccc(C(F)F)nc2)nc(-n2ccnc2)n1` [Compound 169, N-(6-(difluoromethyl)pyridin-3-yl)-2-(1H-imidazol-1-yl)-6-isopropylpyrimidine-4-carboxamide], the IC50 in test [1] turned out to be 22 nM; in test [2] it was 15 nM; in test [3], 2250 nM.
